Laboratory results published in patent US12458605B2, “Lipid nanoparticle” (National University Corporation Hokkaido University, priority 2020, dated 2025).

Legend:
[1] = test system: spleen; assay: In vivo Fluc activity of FlucmRNA-loaded LNP by in vivo imaging, spleen; conditions: Balb/c mice, 6 hours; for Fluc Activity in spleen: FlucmRNA-loaded LNP i.v. 0.1 mg mRNA/kg; for Fluc activity in the spleen, compared with CL4F6: versus LNP comprising CL4F6 (Tables 5 and 6)
Method: (§1) Then, each prepared FlucmRNA-loaded lipid nanoparticles were administered to Balb/c mice (Charles River Laboratories Japan, Inc., 7 weeks old, female) and in vivo gene expression activity was examined. Specifically, each FlucmRNA-loaded lipid nanoparticles were intravenously administered to Balb/c mice at 0.1 mg mRNA/kg, and Fluc activities in the liver and spleen at 6 hours later were measured. Fluc activity was measured by in vivo imaging system (Perkin Elmer, IVIS200) after administration of VivoGlo Luciferin, In Vivo Grade (Promega, P1041) dissolved with PBS to 15 mg/mL, via tail vein at a dose of 1.5 mg per mouse. The unit of Fluc activity is the emission intensity per unit area (Avg Radiance [p/s/cm2/sr]) at the maximum emission wavelength of about 560 nm. The results of measurement of the Fluc activity (Avg Radiance [p/s/cm2/sr]) in the liver and spleen of mice administered each FlucmRNA-loaded lipid nanoparticles are shown in Tables 5-7.

[2] = Average particle size (ζ-Average) and PDI by dynamic light scattering (Zetasizer Nano ZSP); type: physicochemical
Method: The average particle size (ζ-Average) and PDI in PBS(−) of lipid nanoparticles were measured using “Zetasizer Nano ZSP”, an analyzer utilizing dynamic light scattering (manufactured by Malvern).
Measurement of average particle size and PDI of the lipid nanoparticles were carried out with the same method as the measurement of average particle size of mRNA-LNP.
The average particle size (ζ-Average) and PDI in PBS (−) of lipid nanoparticles were measured using “Zetasizer Nano ZSP”, an analyzer utilizing dynamic light scattering (manufactured by Malvern).

[3] = test system: F7; assay: In vivo F7 knockdown, plasma F7 enzyme activity (BIOPHEN FVII), Balb/c mice; conditions: for F7 enzyme activity (Ratio using MC3 as 1): i.v. 0.025 mg siRNA/kg, plasma at 24 hours, relative plasma F7 activity of MC3 LNP as 1
Method: Then, each prepared F7siRNA-loaded lipid nanoparticles were administered to Balb/c mice (Charles River Laboratories Japan, Inc., 5 weeks old, female) and in vivo F7 knockdown activity was examined. Specifically, BALB/c mice were intravenously administered F7siRNA-loaded lipid nanoparticles comprising the lipids described in Table 9 at 0.025 mg siRNA/kg and F7siRNA-loaded lipid nanoparticles comprising the lipids described in Tables 10 and 11 at 0.025 mg siRNA/kg, and the plasma F7 enzyme activity at 24 hours later was measured using BIOPHEN FVII (Biophen, A221304). Relative plasma F7 enzyme activity (%) of mice administered each F7siRNA-loaded lipid nanoparticles was calculated using plasma F7 enzyme activity of untreated mice as 100%. Furthermore, the ratio was calculated using the relative plasma F7 enzyme activity (%) of mice administered MC3-comprising F7siRNA-loaded lipid nanoparticles as 1. The results of measurement of CL4F6 derivative nanoparticles are shown in Tables 9 and 10, and results of measurement of CL15F6 derivative nanoparticles in Table 11.

[4] = test system: liver; assay: In vivo Fluc activity of FlucmRNA-loaded LNP by in vivo imaging, liver; conditions: Balb/c mice, 6 hours; for Fluc Activity in liver: FlucmRNA-loaded LNP i.v. 0.1 mg mRNA/kg
Method: as §1

[5] = Storage stability of FlucmRNA-loaded LNP at −80, 5, 25 and 40° C.; type: physicochemical; conditions: for period for which quality remained good, −80° C.: maximum storage period 1 week; for quality at production (storage stability criteria): criteria: PDI 0.2 or less, encapsulation 80% or more
Method: Lipid nanoparticles were allowed to stand at each temperature of −80° C., 5° C., 25° C., and 40° C., and after keeping for each period of time, average particle size, PDI, and nucleic acid encapsulation rate were measured. Lipid nanoparticles which satisfy following all three conditions were defined that the quality was remained well: the average particle size is maintained within +/−20 nm based on the date of LNP preparation; PDI remains high uniformity with a value of 0.2 or less; and the nucleic acid encapsulation rate is also maintained at 80% or more. As a result of measuring average particle size, PDI, and nucleic acid encapsulation rate after each FlucmRNA-loaded lipid nanoparticle was allowed to stand at −80° C., 5° C., 25° C., and 40° C. respectively and kept for each period of time, periods of time defined as the quality of the lipid nanoparticles was remained well are shown in Tables 13 and 14. The lipid nanoparticles which remain in good quality with standing at 5° C. for one week or more can be evaluated as having excellent stability.

[6] = siRNA/mRNA encapsulation rate by Ribogreen reagent (section IV); type: physicochemical; conditions: for % siRNA encapsulation: F7siRNA-loaded LNP, 50:10:38.5:1.5, N/P ratio 6; for % mRNA encapsulation: FlucmRNA-loaded LNP, 50:10:38.5:1.5
Method: The encapsulation rates of siRNA and mRNA of lipid nanoparticles were measured with Ribogreen reagent. A solution diluted with TE buffer solution was arranged so that lipid nanoparticle concentration as nucleic acid concentration to be 8 μg/mL, as a solution for measuring nanoparticle surface nucleic acid concentration. In addition, a solution for measuring total nucleic acid concentration was arranged so that lipid nanoparticle concentration as nucleic acid concentration to be 1.2 μg/mL, which is 1% (w/w) concentration of X-triton100, by adding X-triton100. For 100 μL of each solution, 100 μL of Ribogreen (registered trademark) reagent (Quant-iT™ RiboGreen™ RNA Reagent, manufactured by Thermofisher Scientific) was mixed well in the wells of 96-well microplate (black, made of polystyrene, flat bottom, manufactured by Corning), and the fluorescence intensity at an excitation wavelength of 485 nm and a measurement wavelength of 528 nm was measured with a microplate reader. Nucleic acid concentration was calculated by calibration curve created by measuring the fluorescence intensity of nucleic acid solution containing 1% X-triton100 (nucleic acid concentration: 0-2.5 μg/mL) as same as aforementioned. Nucleic acid encapsulation rate of each lipid nanoparticle was calculated by the following formula: Encapsulation rate %=(nucleic acid concentration in solution for measuring total nucleic acid concentration (μg/mL)−nucleic acid concentration in solution for measuring nanoparticle surface nucleic acid concentration (μg/mL))/nucleic acid concentration in solution for measuring total nucleic acid concentration (μg/mL)×100. <Results>
The encapsulation rate of mRNA of lipid nanoparticles was measured using Ribogreen (manufactured by life technologies).

[7] = F7siRNA-loaded LNP, 50:10:38.5:1.5, N/P ratio 6
[8] = FlucmRNA-loaded LNP, 50:10:38.5:1.5
[9] = FlucmRNA-loaded LNP, lipid:DSPC:cholesterol:DMG-PEG2K 50:10:38.5:1.5
[10] = 0.1 mg mRNA/kg, versus LNP comprising CL15F6 (Table 7)

Row | PDI [2, 7] | ζ-Average (nm) [2, 7] | PDI [2, 8] | ζ-Average (nm) [2, 9] | period for which quality remained good, −80° C. [5] | period for which quality remained good, 5° C. ([5]; maximum storage period 5 weeks) | period for which quality remained good, 25° C. ([5]; maximum storage period 5 weeks) | period for which quality remained good, 40° C. (weeks) ([5]; maximum storage period 5 weeks) | % siRNA encapsulation [6] | % mRNA encapsulation [6] | period for which quality remained good, 40° C. (days) ([5]; maximum storage period 5 weeks) | period for which quality remained good, 40° C. ([5]; maximum storage period 5 weeks) | Compound | Fluc Activity in spleen [1] | knockdown activity, compared with MC3 ([3]; F7siRNA-loaded LNP, versus LNP comprising MC3) | F7 enzyme activity (Ratio using MC3 as 1) [3] | Fluc activity in the liver, compared with CL15F6 [4, 10] | Fluc Activity in liver [4] | quality at production (storage stability criteria) [5] | Fluc activity in the spleen, compared with CL15F6 [1, 10] | Fluc activity in the spleen, compared with CL4F6 ([1]; 0.1 mg mRNA/kg)
1 | 0.014 | 100.2 nm | 0.030 | 97.59 nm | 1 week | 5 weeks | 5 weeks | 5 weeks | 100.5% | 99.78% |  |  | CCCCCCCCCCC(CCCCCCCCCC)C(=O)OCCCCCCC(O)(CCCCCCOC(=O)C(CCCCCCCCCC)CCCCCCCCCC)CCCCOC(=O)C1CCN(C)CC1 [CL15F 12-10] | 5.58E+06 Avg Radiance [p/s/cm2/sr] | higher knockdown activity | 0.51 | higher Fluc activity | 4.33E+07 Avg Radiance [p/s/cm2/sr] |  |  | 
2 | 0.238 | 109.6 nm | 0.234 | 195.90 nm |  |  |  |  | 101.0% | 100.1% |  |  | CCCCCCCCCCCCCCCC(=O)OCCCCCCC(O)(CCCCCCOC(=O)CCCCCCCCCCCCCCC)CCCCOC(=O)C1CCN(C)CC1 [CL15F 16-0] | 4.59E+05 Avg Radiance [p/s/cm2/sr] |  | 1.48 |  | 1.97E+05 Avg Radiance [p/s/cm2/sr] | Does not meet the criteria for “good” at production |  | 
3 | 0.255 | 230.7 nm | 0.316 | 312.10 nm |  |  |  |  | 91.5% | 66.7% |  |  | CCCCC(CCCC)C(=O)OCCCCCCC(O)(CCCCCCOC(=O)C(CCCC)CCCC)CCCCOC(=O)C1CCN(C)CC1 [CL15F 6-4] | 3.39E+07 Avg Radiance [p/s/cm2/sr] |  | 2.28 |  | 1.84E+06 Avg Radiance [p/s/cm2/sr] | Does not meet the criteria for “good” at production | higher Fluc activity | 
4 |  |  | 0.025 | 133.90 nm | 0 week | 5 weeks | 5 weeks |  |  | 98.1% | 0 day days |  | CCCCCC(CCC)C(=O)OCCCCCCC(O)(CCCCCCOC(=O)C(CCC)CCCCC)CCCCN(CCC)CCC (centres unmarked) [CL4F 7-3] | 6.64E+05 Avg Radiance [p/s/cm2/sr] |  |  |  | 3.43E+05 Avg Radiance [p/s/cm2/sr] |  |  | 
5 |  |  | 0.032 | 113.50 nm | 0 week | 5 weeks | 5 weeks | 1 week weeks |  | 98.8% |  |  | CCCCCC(CCCC)C(=O)OCCCCCCC(O)(CCCCCCOC(=O)C(CCCC)CCCCC)CCCCN(CCC)CCC (centres unmarked) [CL4F 7-4] | 7.43E+06 Avg Radiance [p/s/cm2/sr] |  |  |  | 5.05E+06 Avg Radiance [p/s/cm2/sr] |  |  | higher Fluc activity
6 |  |  | 0.225 | 158.30 nm |  |  |  |  |  | 86.2% |  |  | CCCCCCCCCCCCCCCC(=O)OCCCCCCC(O)(CCCCCCOC(=O)CCCCCCCCCCCCCCC)CCCCN(CCC)CCC [CL4F 16-0] | 2.83E+05 Avg Radiance [p/s/cm2/sr] |  |  |  | 2.32E+04 Avg Radiance [p/s/cm2/sr] | Does not meet the criteria for “good” at production |  | 
7 |  |  | 0.002 | 95.29 nm | 1 week | 5 weeks | 5 weeks | 1 week weeks |  | 99.1% |  |  | CCCCCCCC(CCCC)C(=O)OCCCCCCC(O)(CCCCCCOC(=O)C(CCCC)CCCCCCC)CCCCN(CCC)CCC (centres unmarked) [CL4F 9-4] | 8.69E+06 Avg Radiance [p/s/cm2/sr] |  |  |  | 2.55E+07 Avg Radiance [p/s/cm2/sr] |  |  | higher Fluc activity
8 | 0.534 | 390.7 nm |  |  |  |  |  |  | 100.4% |  |  |  | CCCCC(CC)C(=O)OCCCCCCC(O)(CCCCCCOC(=O)C(CC)CCCC)CCCCOC(=O)C1CCN(C)CC1 (centres unmarked) [CL15F 6-2] |  |  | 1.87 |  |  | Does not meet the criteria for “good” at production |  | 
9 |  |  | 0.021 | 89.18 nm | 1 week | 5 weeks | 5 weeks | 5 weeks |  | 99.1% |  |  | CCCCCCCC(CCCCCC)C(=O)OCCCCCCC(O)(CCCCCCOC(=O)C(CCCCCC)CCCCCCC)CCCCN(CCC)CCC (centres unmarked) [CL4F 9-6] | 3.89E+06 Avg Radiance [p/s/cm2/sr] |  |  |  | 9.61E+07 Avg Radiance [p/s/cm2/sr] |  |  | 
10 |  |  | 0.023 | 141.10 nm | 0 week | 5 weeks | 5 weeks |  |  | 97.2% |  | 3 days | CCCCC(CCCC)C(=O)OCCCCCCC(O)(CCCCCCOC(=O)C(CCCC)CCCC)CCCCN(CCC)CCC [CL4F 6-4] | 2.95E+05 Avg Radiance [p/s/cm2/sr] |  |  |  | 2.17E+05 Avg Radiance [p/s/cm2/sr] |  |  | 
11 |  |  |  |  | 1 week | 5 weeks | 5 weeks | 5 weeks |  |  |  |  | 7-hydroxy-7-(4-((1-methylpiperidine-4-carbonyl)oxy)butyl)tridecan-1,13-diyl bis(2-(4,4-dimethylpentan-2-yl)-5,7,7-trimethyloctanoate [CL15G6] |  |  |  |  |  |  |  | 
